The values below come from patent EP4603105A1, “PHARMACEUTICAL COMPOSITION CONTAINING CYCLIC COMPOUND HAVING SELECTIVE KRAS INHIBITORY EFFECT AGAINST HRAS AND NRAS” (CHUGAI SEIYAKU KABUSHIKI KAISHA, priority 2022, dated 2024).

Assay [1] concerns the target GDP-bound KRAS wild-type protein (Homo sapiens, UniProt P01116). Put plainly: Binding to KRAS by surface plasmon resonance (SPR), dissociation constant KD. The following applies: Single Cycle Kinetics. The method, boiled down: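 Compound binding is evaluated by SPR single-cycle kinetics, with concentrations added intermittently from low to high for 75 s each. Target surfaces carry GDP-loaded biotinylated Avi-RAS at about 100–300 RU, regenerated after each cycle; temperature 30°C. A 1:1 binding model gives KD.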
Background: Surface plasmon resonance follows binding to a sensor surface in real time, without labels.

The target of a further assay is HRAS wild-type protein (Homo sapiens, UniProt P01112). Put plainly: Binding to HRAS by surface plasmon resonance (SPR), KD and KD ratio to KRAS. As to conditions: ratio of KD for HRAS wild-type protein to KD for KRAS. The method, boiled down: (§1)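 Running buffer contained 10 µM GDP and 10 mM MgCl2 to keep RAS in the GDP state, with 4% DMSO at pH 7.4. Compounds were flowed at 100 µL/min in 75 s steps of rising concentration over captured biotin-Avi RAS at 30°C. Sensorgrams were fitted 1:1 for KD.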
Sequence of HRAS wild-type protein (P01112 whole entry): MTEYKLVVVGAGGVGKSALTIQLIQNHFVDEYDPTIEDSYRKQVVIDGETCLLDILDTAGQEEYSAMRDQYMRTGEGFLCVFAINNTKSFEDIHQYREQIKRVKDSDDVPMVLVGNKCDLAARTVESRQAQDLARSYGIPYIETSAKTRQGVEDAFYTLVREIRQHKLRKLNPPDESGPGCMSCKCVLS

In assay [2] the test system is human lung cancer strain NCI-H441. Description: NCI-H441 cell proliferation inhibitory activity (CellTiter-Glo, 4 days). The format is cell-based. The following applies: NCI-H441 cells, 4 days, read-out: NCl-H441 IC50. The method, boiled down:
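Step one: dispense the test compound in serial DMSO dilutions. Step three: add the reagent and measure […].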

Assay [3] addresses GDP-bound NRAS wild-type protein (Homo sapiens, UniProt P01111). Put plainly: Binding to NRAS by surface plasmon resonance (SPR), KD and KD ratio to KRAS. As to conditions: ratio of KD for GDP-bound NRAS wild-type protein to KD for KRAS. The method, boiled down:
as §1

Usually Kd stands for the concentration at which binding is half-saturated. One may read the IC50 as the point on the concentration scale where inhibition reaches its midpoint.

Sequence of GDP-bound NRAS wild-type protein (P01111 whole entry): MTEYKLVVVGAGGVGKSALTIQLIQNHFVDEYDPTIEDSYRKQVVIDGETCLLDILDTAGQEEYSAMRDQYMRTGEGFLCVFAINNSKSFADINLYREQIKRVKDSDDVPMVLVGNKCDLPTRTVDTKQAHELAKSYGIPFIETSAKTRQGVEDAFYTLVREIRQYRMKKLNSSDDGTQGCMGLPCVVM
Sequence of GDP-bound KRAS wild-type protein (P01116 1-188 isoform P01116-2): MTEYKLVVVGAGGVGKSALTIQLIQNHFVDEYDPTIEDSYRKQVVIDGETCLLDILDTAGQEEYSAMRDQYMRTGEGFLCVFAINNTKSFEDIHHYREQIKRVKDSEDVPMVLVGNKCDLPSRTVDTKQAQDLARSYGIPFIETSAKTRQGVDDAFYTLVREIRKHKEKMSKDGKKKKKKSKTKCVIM

With `C=CC[C@H]1C(=O)N(C)[C@H](C(=O)N(C)C)CC(=O)N(C)[C@@H](CCC)C(=O)N[C@@H]([C@@H](C)CC)C(=O)N(C)CC(=O)N(C)[C@H]2C/C=C\CCN(C2=O)[C@@H](Cc2ccc(C(F)(F)F)cc2)C(=O)N(C)CC(=O)N[C@@H](CCc2cc(F)c(C(F)(F)F)c(F)c2)C(=O)N2C[C@H](OCC)C[C@H]2C(=O)N(C)C2(CCC2)C(=O)N1C` [PP3336], in assay [1], binding was characterised by a dissociation constant (Kd) of 1.5 nM. Besides, the “HRAS /KRAS” value on HRAS wild-type protein was “A (a compound having 10 or more and less than 20 is denoted as A)”. For the same compound, the IC50 in assay [2] stood at 66.1 nM. The “NRAS /KRAS” value in assay [3] is “A (a compound having 10 or more and less than 20 is denoted as A)”.

For the compound `C=C(C)C[C@H]1C(=O)N(C)[C@H](C(=O)N(C)C)CC(=O)N(C)[C@@H](CCC)C(=O)N[C@@H]([C@@H](C)CC)C(=O)N(C)CC(=O)N(C)[C@H]2C/C=C\CCN(C2=O)[C@@H](Cc2ccc(C(F)(F)F)cc2)C(=O)N(C)CC(=O)N[C@@H](CCc2cc(F)c(C(F)(F)F)c(F)c2)C(=O)N2C[C@H](OCC)C[C@H]2C(=O)N(C)C2(CCC2)C(=O)N1C` [PP3337], in assay [1], the affinity, expressed as Kd, was 1.3 nM. Further, at HRAS wild-type protein, the “HRAS /KRAS” value was “A (a compound having 10 or more and less than 20 is denoted as A)”. Also, in assay [2], the concentration for half-maximal inhibition (IC50) came out at 65.5 nM. Further, in assay [3], the “NRAS /KRAS” value was “A (a compound having 10 or more and less than 20 is denoted as A)”.

As to `C=CC[C@H]1C(=O)N(C)[C@H](C(=O)N(C)C)CC(=O)N(C)[C@@H](CCC)C(=O)N[C@@H]([C@@H](C)CC)C(=O)N2CCC[C@H]2C(=O)N(C)[C@H]2C/C=C\CCN(C2=O)[C@@H](Cc2ccc(C(F)(F)F)cc2)C(=O)N(C)CC(=O)N[C@@H](CCc2cc(F)c(C(F)(F)F)c(F)c2)C(=O)N2C[C@H](OCC)C[C@H]2C(=O)N(C)C2(CCC2)C(=O)N1C` [PP3338], binding in assay [1] was put at a Kd of 4.6 nM. Further, at HRAS wild-type protein, the “HRAS /KRAS” value was “A (a compound having 10 or more and less than 20 is denoted as A)”. Besides, in assay [2], the IC50 worked out at 104 nM. In addition, the “NRAS /KRAS” value in assay [3] was “A (a compound having 10 or more and less than 20 is denoted as A)”.

With `C=C(C)C[C@H]1C(=O)N(C)[C@H](C(=O)N(C)C)CC(=O)N(C)[C@@H](CCC)C(=O)N[C@@H]([C@@H](C)CC)C(=O)N2CCC[C@H]2C(=O)N(C)[C@H]2C/C=C\CCN(C2=O)[C@@H](Cc2ccc(C(F)(F)F)cc2)C(=O)N(C)CC(=O)N[C@@H](CCc2cc(F)c(C(F)(F)F)c(F)c2)C(=O)N2C[C@H](OCC)C[C@H]2C(=O)N(C)C2(CCC2)C(=O)N1C` [PP3339], the Kd in assay [1] turned out to be 3.6 nM. In addition, the “HRAS /KRAS” value at HRAS wild-type protein was “A (a compound having 10 or more and less than 20 is denoted as A)”. The IC50 in assay [2] is 104 nM. In addition, in assay [3], the “NRAS /KRAS” value was “A (a compound having 10 or more and less than 20 is denoted as A)”.

`CCC[C@H]1C(=O)N[C@@H](C23CC(C2)C3)C(=O)N(C)CC(=O)N(C)[C@H]2C/C=C\CCN(C2=O)[C@@H](Cc2ccc(C(F)(F)F)cc2)C(=O)N(C)CC(=O)N[C@@H](CCc2ccc(C(F)(F)F)c(OC)c2)C(=O)N2C[C@H](OCC)C[C@H]2C(=O)N(C)C2(CCC2)C(=O)N(C)[C@@H](C2CCCC2)C(=O)N(C)[C@H](C(=O)N(C)C)CC(=O)N1C` [PP3341] showed a Kd in assay [1] of 0.46 nM. Also, the “HRAS /KRAS” value on HRAS wild-type protein is “A (a compound having 10 or more and less than 20 is denoted as A)”. Also, the 50% inhibitory concentration (IC50) in assay [2] stood at 28.3 nM. Moreover, in assay [3], the “NRAS /KRAS” value was “A (a compound having 10 or more and less than 20 is denoted as A)”.

`CCC[C@H]1C(=O)N[C@@H](C23CC(C2)C3)C(=O)N2CCC[C@H]2C(=O)N(C)[C@H]2C/C=C\CCN(C2=O)[C@@H](Cc2ccc(C)cc2)C(=O)N(C)CC(=O)N[C@@H](CCc2ccc(C(F)(F)F)c(OC)c2)C(=O)N2C[C@H](OCC)C[C@H]2C(=O)N(C)C2(CCC2)C(=O)N(C)[C@@H](C2CCCC2)C(=O)N(C)[C@H](C(=O)N(C)C)CC(=O)N1C` [PP3342] had a Kd in assay [1] of 1.8 nM. On HRAS wild-type protein, the “HRAS /KRAS” value is “A (a compound having 10 or more and less than 20 is denoted as A)”. Besides, in assay [2], the IC50 is 22.8 nM. Moreover, the “NRAS /KRAS” value in assay [3] is “A (a compound having 10 or more and less than 20 is denoted as A)”.

On to `CCC[C@H]1C(=O)N[C@@H](C23CC(C2)C3)C(=O)N2CCC[C@H]2C(=O)N(C)[C@H]2C/C=C\CCN(C2=O)[C@@H](Cc2ccc(C(F)(F)F)cc2)C(=O)N(C)CC(=O)N[C@@H](CCc2ccc(C(F)(F)F)c(OC)c2)C(=O)N2C[C@H](OCC)C[C@H]2C(=O)N(C)C2(CCC2)C(=O)N(C)[C@@H](C2CCCC2)C(=O)N(C)[C@H](C(=O)N(C)C)CC(=O)N1C` [PP3343], for which, in assay [1], binding was characterised by a dissociation constant (Kd) of 2.4 nM. For the same compound, the “HRAS /KRAS” value at HRAS wild-type protein was “A (a compound having 10 or more and less than 20 is denoted as A)”. In addition, in assay [2], the IC50 was determined as 29.3 nM. For the same compound, the “NRAS /KRAS” value in assay [3] is “A (a compound having 10 or more and less than 20 is denoted as A)”.

In assay [1], `C=CC[C@H]1C(=O)N(C)[C@H](C(=O)N(C)C)CC(=O)N(C)[C@@H](CC(C)C)C(=O)N[C@@H]([C@@H](C)CC)C(=O)N(C)CC(=O)N(C)[C@H]2C/C=C\CCN(C2=O)[C@@H](Cc2ccc(C)cc2)C(=O)N(C)CC(=O)N[C@@H](CCc2ccc(C(F)(F)F)c(OC)c2)C(=O)N2C[C@H](OCC)C[C@H]2C(=O)N(C)C2(CCC2)C(=O)N1C` [PP3344] gave a Kd of 1.4 nM. The “HRAS /KRAS” value at HRAS wild-type protein is “B (a compound having 3 or more and less than 10 is denoted as B)”. For the same compound, the IC50 in assay [2] was determined as 54.9 nM. For the same compound, the “NRAS /KRAS” value in assay [3] is “A (a compound having 10 or more and less than 20 is denoted as A)”.

Consider `C=C(C)C[C@H]1C(=O)N(C)[C@H](C(=O)N(C)C)CC(=O)N(C)[C@@H](CC(C)C)C(=O)N[C@@H]([C@@H](C)CC)C(=O)N(C)CC(=O)N(C)[C@H]2C/C=C\CCN(C2=O)[C@@H](Cc2ccc(C)cc2)C(=O)N(C)CC(=O)N[C@@H](CCc2ccc(C(F)(F)F)c(OC)c2)C(=O)N2C[C@H](OCC)C[C@H]2C(=O)N(C)C2(CCC2)C(=O)N1C` [PP3345], for which binding in assay [1] was put at a Kd of 0.86 nM. Moreover, the “HRAS /KRAS” value on HRAS wild-type protein is “A (a compound having 10 or more and less than 20 is denoted as A)”. In addition, in assay [2], the IC50 was found to be 58.3 nM. In addition, the “NRAS /KRAS” value in assay [3] was “A (a compound having 10 or more and less than 20 is denoted as A)”.

In turn, `C=CC[C@H]1C(=O)N(C)[C@H](C(=O)N(C)C)CC(=O)N(C)[C@@H](CC(C)C)C(=O)N[C@@H]([C@@H](C)CC)C(=O)N(C)CC(=O)N(C)[C@H]2C/C=C\CCN(C2=O)[C@@H](Cc2ccc(C)cc2)C(=O)N(C)CC(=O)N[C@@H](CCc2cc(F)c(C(F)(F)F)c(F)c2)C(=O)N2C[C@H](OCC)C[C@H]2C(=O)N(C)C2(CCC2)C(=O)N1C` [PP3348] yielded a Kd in assay [1] of 1.4 nM. Moreover, on HRAS wild-type protein, the “HRAS /KRAS” value was “A (a compound having 10 or more and less than 20 is denoted as A)”. The IC50 in assay [2] came out at 25.4 nM. Besides, the “NRAS /KRAS” value in assay [3] is “A (a compound having 10 or more and less than 20 is denoted as A)”.

The compound `C=C(C)C[C@H]1C(=O)N(C)[C@H](C(=O)N(C)C)CC(=O)N(C)[C@@H](CC(C)C)C(=O)N[C@@H]([C@@H](C)CC)C(=O)N(C)CC(=O)N(C)[C@H]2C/C=C\CCN(C2=O)[C@@H](Cc2ccc(C)cc2)C(=O)N(C)CC(=O)N[C@@H](CCc2cc(F)c(C(F)(F)F)c(F)c2)C(=O)N2C[C@H](OCC)C[C@H]2C(=O)N(C)C2(CCC2)C(=O)N1C` [PP3349] showed a Kd in assay [1] of 1.7 nM. Further, the “HRAS /KRAS” value at HRAS wild-type protein was “A (a compound having 10 or more and less than 20 is denoted as A)”. Further, in assay [2], the half-inhibitory concentration (IC50) is 15.7 nM. In assay [3], the “NRAS /KRAS” value was “A (a compound having 10 or more and less than 20 is denoted as A)”.
